Reference: PubChem BioAssay (NCI)
Several values for one entry are separate records, joined by “and”; a condition that tells them apart may be missing. Equal values may be shown once.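 The compound was tested at five concentrations on cells cultured in 96-well plates, with a 48-hour exposure period. GI50: concentration for 50% inhibition of growth. TGI: total growth inhibition.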

system: M14 melanoma; test: inhibition of tumour cell growth, NCI panel, 48 h

Compound | GI50 [µM] | TGI
C=C1CC[C@@H](C(C)C)C[C@@H]2[C@H]([C@H](O)C[C@]2(C)O)[C@@]2(C)CC[C@@H]1O2 | 19.3 | 33.4 µM
Nc1ccc2[nH]cc(CCC(=O)O)c2c1 |  | > 100 µM
OCC(O)CNc1ccnc2cc(Cl)ccc12 (stereo not drawn) |  | > 100 µM
Cc1cccc(C(C)C)c1NC(=O)C(=O)C(C(=O)c1ccccc1F)C1OC(=O)c2ccccc21 (stereo not drawn) |  | 38.5 µM
Cc1ccc(Nc2nnc(-c3ccc4c(c3)OCO4)o2)c(C)c1 |  | > 100 µM
Cc1cccc(C)c1NC(=O)C(=O)CC(=O)c1cccc([N+](=O)[O-])c1 |  | > 100 µM
CC1=C(c2cc(C(=O)Nc3ccc(Cl)cc3)nc(=S)[nH]2)Sc2ccccc2N1 |  | > 100 µM
O=C(O)CN(c1ccccc1)S(=O)(=O)c1ccc([N+](=O)[O-])cc1 |  | > 100 µM
CC1=C(C(=O)NNS(=O)(=O)c2ccc(C)cc2)CC(C(=O)NNS(=O)(=O)c2ccc(C)cc2)=C(C)N1 |  | > 100 µM
[F][Sn]([F])([c]1ccccc1)[c]1ccccc1 | 2.08 | 4.45 µM
N#CC(C(=O)CCC(=O)Nc1cccc(C(F)(F)F)c1)c1ccc(Cl)cc1 (stereo not drawn) |  | > 100 µM
Cc1cc(C(C)(C)C)cc(Cc2cc(C(C)(C)C)cc(Cc3cc(C(C)(C)C)cc(C)c3O)c2O)c1O |  | 20.5 µM
COC(=O)/C(=C\c1ccc(N(CCC#N)CCC#N)cc1)NC(=O)c1cc([N+](=O)[O-])ccc1Cl |  | > 100 µM
COC1=C(Br)C(=O)c2nc(C)ccc2C1=O |  | 28.4 µM
C/C(CCn1[nH]c(=O)ccc1=O)=N\OCCCc1ccccc1 |  | > 100 µM
COC(=O)c1cccc2cccc(C(=O)Nc3ccc(Cl)cc3)c12 |  | > 100 µM
N.N.NCCCCCCCCCN.O=C([O-])CC(=O)[O-].O=C([O-])CC(=O)[O-].[Pt+4].[Pt+4] | 50.5 | > 100 µM
CCN(CC)c1cc2oc3cc(N)cc(=N)c-3nc2cc1C | 2.25 | 4.92 µM
CC(=O)OC1C2CCC1C1C2C2(Cl)C(Cl)=C(Cl)C1(Cl)C2(Cl)Cl (stereo not drawn) |  | 25.3 µM
CC(C(=O)n1c2ccccc2c2ccccc21)N(c1ccccc1)c1ccccc1 (stereo not drawn) |  | 30.5 µM
CCOC(=O)Cn1c(=O)n(C)c(=O)c2c1ncn2Cc1ccccc1 |  | > 100 µM
CCCCc1c2c(nc3c1CCC/C3=C\c1ccccc1)/C(=C/c1ccccc1)CCC2 |  | > 100 µM
CC(C)(C)OC(=O)N1N=NC2C1C1CC(OCc3ccccc3)(OCc3ccccc3)C2O1 (stereo not drawn) |  | > 100 µM

Compound | GI50 [µM] | TGI
CC(O)CC(O)(C(F)(F)F)C(F)(F)F (stereo not drawn) |  | > 10 µM
O=C1CSC(c2ccc(-c3nc4ccccc4s3)cc2)=N1 | 38.6 | > 100 µM
CC1=CC(=O)C(C(O)(C(F)(F)F)C(F)(F)F)C(C)(C)C1 (stereo not drawn) |  | > 10 µM
O=C1C(=O)N(c2cc(Cl)ccc2Cl)C(=O)C(=O)C1c1nc2ccccc2o1 |  | > 100 µM
Cc1ncc([N+](=O)[O-])n1CCNS(=O)(=O)CCCn1ncnc1[N+](=O)[O-] |  | > 100 µM
CC1=C(C(=O)Nc2ccccc2)C(c2ccc(C3C(C(=O)Nc4ccccc4)=C(C)NC(C)=C3C(=O)Nc3ccccc3)cc2)C(C(=O)Nc2ccccc2)=C(C)N1 |  | 6.46 µM
O=C(O)C12CC3(C(=O)O)CC(C(=O)O)(CC(C(=O)O)(C1)C3=O)C2=O |  | > 100 µM
CCC(=O)Nc1ccc(N=NN(C)C)cc1 |  | > 100 µM
O=c1c2ccccc2nc(-c2ccccc2)n1NC(=S)Nc1ccccc1 |  | > 100 µM
CCOC(=O)/C(=C/c1cccc(C#N)c1)N(CC)CC |  | > 100 µM
O=S1(=O)OCCOS(=O)(=O)C1Cl |  | > 100 µM
COc1cc(C2C(C(=O)Nc3cc(F)c(F)cc3F)=C(C)NC(C)=C2C(=O)Nc2cc(F)c(F)cc2F)ccc1O |  | > 100 µM
O=c1nc(-c2ccccc2)cc(-c2ccccc2O)[nH]1 |  | > 100 µM
Oc1ccc(Br)cc1C=Nc1ccc(N=Cc2cc(Br)ccc2O)cc1 |  | > 100 µM
CCOc1ccccc1NC(=O)C(=O)Cc1nc2ccccc2s1 |  | > 100 µM
CO/N=C(/C)c1cccc(Nc2cc(-c3ccccc3)nc3ccc(OC)cc23)c1 | 6.92 | 25.3 µM
C=CCn1c2c(sc1=S)C(S)N=CN2 (stereo not drawn) |  | > 100 µM
Cc1cccc(N=C2NC(=O)C(CC(=O)Nc3cccc(C)c3C)S2)c1 (stereo not drawn) |  | > 100 µM
CN(C)CCSc1nccc(-c2cc3ccccc3s2)n1 |  | 32.3 µM
O=C(O)CSc1n[nH]c(Cc2ccccc2)n1 |  | > 100 µM
O=[N+]([O-])c1ccc(CSCc2ccc(Cl)cc2)cc1 |  | > 100 µM
CCOc1ccccc1NC(=O)C(C#N)C1=C(Cl)C(=O)c2ccccc2C1=O (stereo not drawn) |  | 3.05 µM and 3.14 µM

system: OVCAR-8 ovarian; test: inhibition of tumour cell growth, NCI panel, 48 h

Compound | GI50 [µM] | TGI
C=C1CC[C@@H](C(C)C)C[C@@H]2[C@H]([C@H](O)C[C@]2(C)O)[C@@]2(C)CC[C@@H]1O2 | 21.4 | 46.4 µM
Nc1ccc2[nH]cc(CCC(=O)O)c2c1 |  | > 100 µM
OCC(O)CNc1ccnc2cc(Cl)ccc12 (stereo not drawn) |  | > 100 µM
Cc1cccc(C(C)C)c1NC(=O)C(=O)C(C(=O)c1ccccc1F)C1OC(=O)c2ccccc21 (stereo not drawn) |  | 59.7 µM
Cc1ccc(Nc2nnc(-c3ccc4c(c3)OCO4)o2)c(C)c1 |  | > 100 µM
Cc1cccc(C)c1NC(=O)C(=O)CC(=O)c1cccc([N+](=O)[O-])c1 |  | > 100 µM
CC1=C(c2cc(C(=O)Nc3ccc(Cl)cc3)nc(=S)[nH]2)Sc2ccccc2N1 |  | > 100 µM
O=C(O)CN(c1ccccc1)S(=O)(=O)c1ccc([N+](=O)[O-])cc1 |  | > 100 µM
CC1=C(C(=O)NNS(=O)(=O)c2ccc(C)cc2)CC(C(=O)NNS(=O)(=O)c2ccc(C)cc2)=C(C)N1 |  | > 100 µM
Clc1cc(Cl)cc(Nc2ccc3cc(OCCCN4CCOCC4)ccc3n2)c1 | 4.36 | > 100 µM
[F][Sn]([F])([c]1ccccc1)[c]1ccccc1 | 2.05 | 4.88 µM
N#CC(C(=O)CCC(=O)Nc1cccc(C(F)(F)F)c1)c1ccc(Cl)cc1 (stereo not drawn) |  | > 100 µM
Cc1cc(C(C)(C)C)cc(Cc2cc(C(C)(C)C)cc(Cc3cc(C(C)(C)C)cc(C)c3O)c2O)c1O |  | 17.6 µM
COC(=O)/C(=C\c1ccc(N(CCC#N)CCC#N)cc1)NC(=O)c1cc([N+](=O)[O-])ccc1Cl |  | > 100 µM
COC1=C(Br)C(=O)c2nc(C)ccc2C1=O |  | 16.6 µM
C/C(CCn1[nH]c(=O)ccc1=O)=N\OCCCc1ccccc1 |  | > 100 µM
COC(=O)c1cccc2cccc(C(=O)Nc3ccc(Cl)cc3)c12 |  | > 100 µM
N.N.NCCCCCCCCCN.O=C([O-])CC(=O)[O-].O=C([O-])CC(=O)[O-].[Pt+4].[Pt+4] | > 100 | > 100 µM
CCN(CC)c1cc2oc3cc(N)cc(=N)c-3nc2cc1C | 2.77 | > 100 µM
CC(=O)OC1C2CCC1C1C2C2(Cl)C(Cl)=C(Cl)C1(Cl)C2(Cl)Cl (stereo not drawn) |  | 29.6 µM
CC(C(=O)n1c2ccccc2c2ccccc21)N(c1ccccc1)c1ccccc1 (stereo not drawn) |  | 37.7 µM
CCOC(=O)Cn1c(=O)n(C)c(=O)c2c1ncn2Cc1ccccc1 |  | > 100 µM

Compound | GI50 [µM] | TGI
CCCCc1c2c(nc3c1CCC/C3=C\c1ccccc1)/C(=C/c1ccccc1)CCC2 |  | > 100 µM
CC(O)CC(O)(C(F)(F)F)C(F)(F)F (stereo not drawn) |  | > 10 µM
O=C1CSC(c2ccc(-c3nc4ccccc4s3)cc2)=N1 | 11.1 | > 100 µM
CC1=CC(=O)C(C(O)(C(F)(F)F)C(F)(F)F)C(C)(C)C1 (stereo not drawn) |  | > 10 µM
O=C1C(=O)N(c2cc(Cl)ccc2Cl)C(=O)C(=O)C1c1nc2ccccc2o1 |  | > 100 µM
Cc1ncc([N+](=O)[O-])n1CCNS(=O)(=O)CCCn1ncnc1[N+](=O)[O-] |  | > 100 µM
CC1=C(C(=O)Nc2ccccc2)C(c2ccc(C3C(C(=O)Nc4ccccc4)=C(C)NC(C)=C3C(=O)Nc3ccccc3)cc2)C(C(=O)Nc2ccccc2)=C(C)N1 |  | 11.2 µM
O=C(O)C12CC3(C(=O)O)CC(C(=O)O)(CC(C(=O)O)(C1)C3=O)C2=O |  | > 100 µM
CCC(=O)Nc1ccc(N=NN(C)C)cc1 |  | > 100 µM
O=c1c2ccccc2nc(-c2ccccc2)n1NC(=S)Nc1ccccc1 |  | > 100 µM
CCOC(=O)/C(=C/c1cccc(C#N)c1)N(CC)CC |  | > 100 µM
O=S1(=O)OCCOS(=O)(=O)C1Cl |  | > 100 µM
COc1cc(C2C(C(=O)Nc3cc(F)c(F)cc3F)=C(C)NC(C)=C2C(=O)Nc2cc(F)c(F)cc2F)ccc1O |  | 96.7 µM
O=c1nc(-c2ccccc2)cc(-c2ccccc2O)[nH]1 |  | > 100 µM
Oc1ccc(Br)cc1C=Nc1ccc(N=Cc2cc(Br)ccc2O)cc1 |  | > 100 µM
CCOc1ccccc1NC(=O)C(=O)Cc1nc2ccccc2s1 |  | > 100 µM
C=CCn1c2c(sc1=S)C(S)N=CN2 (stereo not drawn) |  | > 100 µM
Cc1cccc(N=C2NC(=O)C(CC(=O)Nc3cccc(C)c3C)S2)c1 (stereo not drawn) |  | > 100 µM
CN(C)CCSc1nccc(-c2cc3ccccc3s2)n1 |  | 65 µM
O=C(O)CSc1n[nH]c(Cc2ccccc2)n1 |  | > 100 µM
O=[N+]([O-])c1ccc(CSCc2ccc(Cl)cc2)cc1 |  | > 100 µM
CCOc1ccccc1NC(=O)C(C#N)C1=C(Cl)C(=O)c2ccccc2C1=O (stereo not drawn) | 1.92 | 2.06 µM and 4.59 µM

system: CCRF-CEM leukemia; test: inhibition of tumour cell growth, NCI panel, 48 h

Compound | TGI [µM]
Nc1ccc2[nH]cc(CCC(=O)O)c2c1 | 32.9
